The structures appear in SMILES notation. Square brackets hold non-standard residues; d marks the D form. Peptide text beside a SMILES is read from it. * marks the point of attachment. Sta = CC(C)C[C@H](N)[C@@H](O)CC(=O)O; Isovaleryl = CC(C)CC(=O)*; Nle = CCCC[C@H](N)C(=O)O

The series is described as follows: Solubility in water. Type of series: physicochemical. The following applies: pH : 7,4. The text has this: Dans les mêmes conditions les composés SR 42406 sous forme de chlorhydrate et SR 43054 B possèdent une solubilité dans l'eau de 1 % et 4 % environ.

As to `CCCC[C@H](NC(=O)[C@H](Cc1ccccc1)NC(=O)CC(C)C)C(=O)N[C@@H](CC(C)C)[C@@H](O)CC(=O)N[C@@H](C)C(=O)N[C@@H](CC(C)C)[C@@H](O)CC(=O)N[C@@H](CCCCN)C(=O)O` [SR 42 654, iVa - Phe - Nle - Sta - Ala - Sta - Lys - OH] (Isovaleryl-F[Nle][Sta]A[Sta]K-OH), the “solubilité dans l'eau” value is recorded as “soluble dans l'eau à environ %”.
As for `CCCC[C@H](NC(=O)[C@H](Cc1ccccc1)NC(=O)CC(C)C)C(=O)N[C@@H](CC(C)C)[C@@H](O)CC(=O)N[C@@H](C)C(=O)N[C@@H](CC(C)C)[C@@H](O)CC(=O)N[C@@H](CCCNC(=N)N)C(=O)OC` [SR 42406, iVa - Phe - Nle - Sta - Ala - Sta - Arg - OMe] (Isovaleryl-F[Nle][Sta]A[Sta]R-OMe), the “solubilité dans l'eau” value (sous forme de chlorhydrate) is given as around 1%.
Regarding `CCCC[C@H](NC(=O)[C@H](Cc1ccccc1)NC(=O)CC(C)C)C(=O)N[C@@H](CC(C)C)[C@@H](O)CC(=O)N[C@@H](C)C(=O)N[C@@H](CC(C)C)[C@@H](O)CC(=O)N[C@@H](CC(=O)O)C(=O)O` [SR 43504 B, iVa-Phe-Nle-Sta-Ala-Sta-Asp-OH, Disel de trishydroxyméthyl-aminométhane] (Isovaleryl-F[Nle][Sta]A[Sta]D-OH), the “solubilité dans l'eau” value is reported as around 4%.
